The values below come from patent US20040157863A1, “Triazolopyrimidines” (priority 2001, published 2004).

One data set relates to Podosphaera leucotricha. Put plainly: Podosphaera test (apple)/protective. The settings on record: apple plants, protective spray, application rate 100 g/ha, evaluation 10 days after inoculation.
For the next data set, the system named is Venturia inaequalis. Put plainly: Venturia test (apple)/protective. The settings on record: apple plants, protective spray, application rate 100 g/ha, evaluation 12 days after inoculation.

Read-outs that look alike come from different tables or passages of the source.

Method for Podosphaera leucotricha: Podosphaera Test (Apple)/Protective
After the spray coating has dried on, the plants are inoculated with an aqueous spore suspension of the apple mildew pathogen Podosphaera leucotricha. The plants are then placed in the greenhouse at about 23° C. and a relative atmospheric humidity of about 70%.
Evaluation is carried out 10 days after the inoculation.
Method for Venturia inaequalis: Venturia Test (Apple)/Protective
After the spray coating has dried on, the plants are inoculated with an aqueous conidia suspension of the apple scab pathogen Venturia inaequalis and then remain in an incubation cabin at about 20° C. and 100% relative atmospheric humidity for one day.
The plants are then placed in a greenhouse at about 21° C. and a relative atmospheric humidity of about 90%.
Evaluation is carried out 12 days after the inoculation.

On to `CSc1nc2nc(Cl)c(-c3c(F)cc(F)cc3F)c(N3CCC(C(F)(F)F)CC3)n2n1` [Example 1, 5-chloro-2-(methylsulphanyl)-7-[4-(trifluoromethyl)-1-piperidinyl]-6-(2,4,6-trifluorophenyl)-[1,2,4]triazolo[1,5-a]pyrimidine], for which the chromatographic logP (usually lipophilicity estimated from chromatographic retention) in “logP (HPLC)” came out at 4.1. In the case of `C[C@H](Nc1c(-c2c(F)cc(F)cc2F)c(Cl)nc2nc(S(C)(=O)=O)nn12)C(F)(F)F` [Example 2a, 5-chloro-2-(methylsulphonyl)-N-[(1S)-2,2,2-trifluoro-1-methylethyl]-6-(2,4,6-tri-fluorophenyl)[1,2,4]triazolo[1,5-a]pyrimidin-7-amine], in “logP (HPLC)” (HPLC), the chromatographic logP worked out at 2.94. `C[C@H](Nc1c(-c2c(F)cc(F)cc2F)c(Cl)nc2nc([S+](C)[O-])nn12)C(F)(F)F` (stereo partly drawn) [Example 2b, 5-chloro-2-(methylsulphinyl)-N-[(1S)-2,2,2-trifluoro-1-methylethyl]-6-(2,4,6-trifluorophenyl)[1,2,4]triazolo[1,5-a]pyrimidin-7-amine]: in “logP (HPLC)” (HPLC), the chromatographic logP came out at 2.5. On to `CSc1nc2nc(Cl)c(-c3c(F)cc(F)cc3F)c(Cl)n2n1` [Example 568, 5,7-dichloro-2-(methylsulphanyl)-6-(2,4,6-trifluorophenyl)-[1,2,4]triazolo[1,5-a]pyrimidine], for which, in “logP (HPLC)”, the chromatographic logP came out at 3.43. On the same count and under the same terms, in the case of `CSc1nc2nc(Cl)c(-c3c(Cl)cccc3Cl)c(Cl)n2n1` [Example 572] it was 3.86; in that of `CSc1nc2nc(O)c(-c3c(F)cc(F)cc3F)c(O)n2n1` [Example 585, 2-methylsulphanyl-6-(2,4,6-trifluoro-phenyl)-[1,2,4]triazolo[1,5-a]pyrimidine-5,7-diol], 0.47.

Regarding `CS(=O)(=O)c1nc2nc(Cl)c(-c3c(Cl)cccc3Cl)c(NC3CCCC3)n2n1` [compound 6], in the data set “logP (HPLC)” (HPLC (gradient method)), the chromatographic logP worked out at 3.35. Still for that read-out and setting: in the case of `CSc1nc2nc(Cl)c(-c3c(Cl)cccc3Cl)c(N[C@@H](C)C(F)(F)F)n2n1` [compound 8] it was 3.82; in that of `CSc1nc2nc(Cl)c(-c3c(F)cc(F)cc3F)c(N[C@@H](C)C(F)(F)F)n2n1` [compound 9], 3.58. Take `CSc1nc2nc(Cl)c(-c3c(Cl)cccc3Cl)c(N[C@@H](C)C(F)(F)F)n2n1` [drawing 57]: the Efficacy in % in the data set on Podosphaera leucotricha is listed as 100%. On the same count and under the same terms, for `CSc1nc2nc(Cl)c(-c3c(F)cc(F)cc3F)c(N[C@@H](C)C(F)(F)F)n2n1` [drawing 58] the value was 94%. In the case of `CSc1nc2nc(Cl)c(-c3c(Cl)cccc3Cl)c(N[C@@H](C)C(F)(F)F)n2n1` [drawing 60], in the data set with Venturia inaequalis, the Efficacy in % is reported as 100%. In the data set with Venturia inaequalis, `CSc1nc2nc(Cl)c(-c3c(F)cc(F)cc3F)c(N[C@@H](C)C(F)(F)F)n2n1` [drawing 61] showed an Efficacy in % of 100%.
